{"source": "patent US4946853A", "about": "“Method for the treatment of withdrawal symptoms associated with smoking cessation and preparations for use in said method” (priority 1987, dated 1990)", "origin": "cited, not measured here", "key": {"[1]": {"conditions": "in vivo"}, "[2]": {"conditions": "oral nicotine administration"}, "[3]": {"conditions": "within one hour of first smoking; 60 min"}}, "data": [{"compound": "CN1CCCC1c1cccnc1", "note": "(stereo not drawn) [nicotine]", "values": [{"measurement": "absorption by the percutaneous route", "setting": "[1]", "result": "high degree of absorption"}, {"measurement": "gastrointestinal upsets", "setting": "[2]", "result": "susceptibility of the patient to gastrointestinal upsets"}, {"measurement": "normal plasma trough level associated with usual smoking", "setting": "[3]", "result": "5 to 15", "unit": "ng/mL"}]}]}
